In patent US12077503B2, “Substituted cyclic amides and their use as herbicides” (FMC CORPORATION, priority 2015, dated 2024):

What was measured:
Experiment in all cases: Test G Pre-Emergence Protocol
Format in all cases: in vivo
[1] = test system: barnyardgrass (Echinochloa crus-galli); settings: Echinochloa crus-galli, pre-emergence, 312 h, evaluated after 13 days; for pest or weed control at 15.625 g/ha: 15.625 g ai/ha, read-out: Barnyard grass damage rating (100=total damage to plant; 0=no damage to plant); for pest or weed control at 62.5 g/ha: 62.5 g ai/ha, 100=total damage to plant, 0=no damage to plant, read-out: plant damage rating, Barnyardgrass; for pest or weed control at 250 g/ha: 250 g ai/ha, read-out: Barnyardgrass damage rating (100=total damage to plant; 0=no damage to plant)
Procedure, shortened: (§1)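 Pots of seeds in standard soil were grown for one day in a glasshouse (24/16 °C day/night, 14 h light, 65% humidity), then sprayed with compound in acetone/water 50:50 with 0.5% Tween 20 at 15.625, 62.5 or 250 g/ha. Damage was scored after 13 days on a 0 (none) to 100 (total) scale.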

corn (Zea mays) = settings: Zea mays, pre-emergence, 312 h, evaluated after 13 days; for plant injury at 15.625 g/ha: 15.625 g ai/ha; for plant injury at 15.625 g/ha / plant injury at 250 g/ha: read-out: Corn damage rating (100=total damage to plant; 0=no damage to plant); for plant injury at 62.5 g/ha: 62.5 g ai/ha, 100=total damage to plant, 0=no damage to plant, read-out: plant damage rating, Corn; for plant injury at 250 g/ha: 250 g ai/ha
Procedure, shortened: as §1

[2] = test system: giant foxtail (Setaria faberi); settings: Setaria faberi, pre-emergence, 312 h, evaluated after 13 days; for pest or weed control at 15.625 g/ha: 15.625 g ai/ha; for pest or weed control at 15.625 g/ha / pest or weed control at 250 g/ha: read-out: Foxtail, Giant damage rating (100=total damage to plant; 0=no damage to plant); for pest or weed control at 62.5 g/ha: 62.5 g ai/ha, 100=total damage to plant, 0=no damage to plant, read-out: plant damage rating, Foxtail, Giant; for pest or weed control at 250 g/ha: 250 g ai/ha
Procedure, shortened: as §1

[3] = test system: velvetleaf (Abutilon theophrasti); settings: Abutilon theophrasti, pre-emergence, 312 h, evaluated after 13 days; for pest or weed control at 15.625 g/ha: 15.625 g ai/ha; for pest or weed control at 15.625 g/ha / pest or weed control at 250 g/ha: read-out: Velvetleaf damage rating (100=total damage to plant; 0=no damage to plant); for pest or weed control at 62.5 g/ha: 62.5 g ai/ha, 100=total damage to plant, 0=no damage to plant, read-out: plant damage rating, Velvetleaf; for pest or weed control at 250 g/ha: 250 g ai/ha
Procedure, shortened: as §1

[4] = test system: ivy-leaved morning glory (Ipomoea hederacea); settings: Ipomoea, pre-emergence, 312 h, evaluated after 13 days; for pest or weed control at 15.625 g/ha: 15.625 g ai/ha, read-out: Morning-glory, Ivy-leaved damage rating (100=total damage to plant; 0=no damage to plant); for pest or weed control at 62.5 g/ha: 62.5 g ai/ha, 100=total damage to plant, 0=no damage to plant, read-out: plant damage rating, Morningglory, Ivy-leaved; for pest or weed control at 250 g/ha: 250 g ai/ha, read-out: Morningglory, Ivy-leaved damage rating (100=total damage to plant; 0=no damage to plant)
Procedure, shortened: as §1

[5] = test system: redroot pigweed (Amaranthus retroflexus); settings: Amaranthus retroflexus, pre-emergence, 312 h, evaluated after 13 days; for pest or weed control at 15.625 g/ha: 15.625 g ai/ha; for pest or weed control at 15.625 g/ha / pest or weed control at 250 g/ha: read-out: Pigweed, Redroot damage rating (100=total damage to plant; 0=no damage to plant); for pest or weed control at 62.5 g/ha: 62.5 g ai/ha, 100=total damage to plant, 0=no damage to plant, read-out: plant damage rating, Pigweed, Redroot; for pest or weed control at 250 g/ha: 250 g ai/ha
Procedure, shortened: as §1

Row | Compound | pest or weed control at 15.625 g/ha [1] [%] | pest or weed control at 62.5 g/ha [1] [%] | pest or weed control at 250 g/ha [1] [%] | plant injury at 15.625 g/ha (corn (Zea mays)) [%] | plant injury at 62.5 g/ha (corn (Zea mays)) [%] | plant injury at 250 g/ha (corn (Zea mays)) [%] | pest or weed control at 15.625 g/ha [2] [%] | pest or weed control at 62.5 g/ha [2] [%] | pest or weed control at 250 g/ha [2] [%] | pest or weed control at 15.625 g/ha [3] [%] | pest or weed control at 62.5 g/ha [3] [%] | pest or weed control at 250 g/ha [3] [%] | pest or weed control at 15.625 g/ha [4] [%] | pest or weed control at 62.5 g/ha [4] [%] | pest or weed control at 250 g/ha [4] [%] | pest or weed control at 15.625 g/ha [5] [%] | pest or weed control at 62.5 g/ha [5] [%] | pest or weed control at 250 g/ha [5] [%]
1 | Cc1c(NC(=O)[C@@H]2C(=O)N(C)C[C@H]2c2ccc(C(F)(F)F)cc2)ccc(F)c1F (racemic) [Compound 1502] | 20 | 60 | 80 | 0 | 0 | 50 | 60 | 90 | 90 | 0 | 0 | 10 | 0 | 0 | 0 | 0 | 20 | 70
2 | CN1C[C@@H](c2ccc(C(F)(F)F)cc2)[C@H](C(=O)Nc2cnccc2Cl)C1=O (racemic) [Compound 1541] | 0 | 0 | 30 | 0 | 0 | 10 | 0 | 0 | 70 | 0 | 0 | 0 | 0 | 0 | 0 | 0 | 0 | 40
3 | Cc1cscc1NC(=O)[C@@H]1C(=O)N(C)C[C@H]1c1ccc(C(F)(F)F)cc1 (racemic) [Compound 1526] | 20 | 60 | 80 | 0 | 0 | 10 | 30 | 50 | 90 | 0 | 0 | 0 | 10 | – | 0 | 0 | 50 | 70
4 | CN1C[C@H](c2ccc3c(c2)CCO3)[C@@H](C(=O)Nc2cccc(F)c2F)C1=O (racemic) [Compound 1499] | 0 | 80 | 90 | 0 | 0 | 80 | 0 | 80 | 80 | 0 | 0 | 30 | 0 | 0 | 100 | – | 0 | 0
5 | Cc1ccncc1NC(=O)[C@@H]1C(=O)N(C)C[C@H]1c1ccc(C(F)(F)F)cc1 (racemic) [Compound 1505] | 0 | 0 | 20 | 0 | 0 | 0 | 0 | 10 | 30 | 0 | 0 | 0 | 0 | – | 0 | 0 | 0 | 0
6 | CN1C[C@@H](c2ccc(C(F)(F)F)cc2)[C@H](C(=O)Nc2ncc(Br)cn2)C1=O (racemic) [Compound 1514] | 0 | 0 | 0 | 0 | 0 | 0 | 0 | 0 | 0 | 0 | 0 | 0 | 0 | 0 | 0 | 0 | 0 | 0
7 | CN1C[C@@H](c2ccc(C(F)(F)F)cc2)[C@H](C(=O)Nc2ccc(C(F)(F)F)nc2Cl)C1=O (racemic) [Compound 1542] | 0 | 10 | 10 | 0 | 0 | 0 | 0 | 10 | 10 | 0 | 0 | 0 | – | 0 | 0 | 0 | 0 | 0
8 | Cc1cc(NC(=O)[C@@H]2C(=O)N(C)C[C@H]2c2ccc(C(F)(F)F)cc2)n[nH]1 (racemic) [Compound 1532] | 0 | 30 | 0 | 0 | 0 | 0 | 100 | 100 | 0 | 0 | 0 | 0 | 0 | 0 | 0 | 0 | 0 | 0
9 | CN1C[C@@H](c2ccc(C(F)(F)F)cc2)[C@H](C(=O)Nc2nc[nH]n2)C1=O (racemic) [Compound 1534] | 0 | 0 | 0 | 0 | 0 | 0 | 0 | 0 | 0 | 0 | 0 | 0 | 0 | 0 | 0 | 0 | 0 | 0
